Values of other authors as cited in patent US20250032638A1, “Novel Cancer Treatments with TLR7/8 Agonists” (Ascendis Pharma Oncology Division A/S, priority 2021, published 2025).

Details: resiquimod administered orally; systemic toxicity at higher doses (Journal of Hepatology 47 (2007) 174-182)

SMILES: CCOCc1nc2c(N)nc3ccccc3c2n1CC(C)(C)O [resiquimod]
- systemic concentration that was well tolerated: about 4 ng/mL
